Source: ChEMBL document CHEMBL6074683, “Design, synthesis and investigation of biological activity and mechanism of fluoroaryl-substituted derivatives at the FL118 position 7” (Eur J Med Chem, 2025)
Calls of active or inactive are those of the source. The rule behind the calls is not given here.

Experiments:
HepG2 = experiment: Cytotoxicity against human HepG2 cells incubated for 72 hrs by MTT assay; assay type: functional, cell-based; details: HepG2, 72 h
A549 = experiment: Cytotoxicity against human A549 cells incubated for 72 hrs by MTT assay; assay type: functional, cell-based; details: A549, 72 h
HeLa = experiment: Cytotoxicity against human HeLa cells incubated for 72 hrs by MTT assay; assay type: functional, cell-based
HCT-116 [1] = experiment: Cytotoxicity against human HCT-116 cells incubated for 72 hrs by MTT assay; assay type: functional, cell-based; details: HCT-116, 72 h
PDX27454 [2] = experiment: Antitumor activity against human PDX27454 cells xenografted in SCID mouse at 2 to 15 mg/kg, ip administered weekly for 4 weeks; assay type: functional, organism-based; details: dose 2-15 mg/kg
[3] = Toxicity in SCID mouse assessed as change in body weight at 2 to 15 mg/kg, ip administered weekly for 4 weeks; assay type: organism-based; details: in vivo, 672 h, dose 2-15 mg/kg
PDX27454 [4] = experiment: Antitumor activity against human PDX27454 cells xenografted in SCID mouse at 15 mg/kg, ip administered weekly for 4 weeks; assay type: functional, organism-based
PDX27454 [5] = experiment: Antitumor activity against human PDX27454 cells xenografted in ip dosed SCID mouse administered weekly for 4 weeks and measured after 35 days; assay type: functional, organism-based; details: dose 2-15 mg/kg
HCT-116 [6] = experiment: Inhibition of colony formation in human HCT-116 cells incubated for 12 hrs by crystal violet staining based assay; assay type: functional, cell-based; details: dose 5-25 nM
HCT-116 [7] = experiment: Induction of ROS generation in human HCT-116 cells incubated for 72 hrs by DCFH-DA staining based assay; assay type: functional, cell-based; details: dose 5-100 nM
HCT-116 [8] = experiment: Induction of ROS generation in human HCT-116 cells incubated for 12 hrs by DCFH-DA staining based assay; assay type: functional, cell-based
HCT-116 [9] = experiment: Induction of apoptosis in human HCT-116 cells assessed as viable cells at 2.5 nM incubated for 48 hrs by PI/Annexin V-FITC staining based flow cytometry assay (reference value: 93%); assay type: functional; details: read-out: Activity
HCT-116 [10] = experiment: Induction of apoptosis in human HCT-116 cells assessed as early apoptotic cells at 2.5 nM incubated for 48 hrs by PI/Annexin V-FITC staining based flow cytometry assay (reference value: 0.27%); assay type: functional
HCT-116 [11] = experiment: Induction of apoptosis in human HCT-116 cells assessed as late apoptotic cells at 2.5 nM incubated for 48 hrs by PI/Annexin V-FITC staining based flow cytometry assay (reference value: 4.02%); assay type: functional
HCT-116 [12] = experiment: Induction of apoptosis in human HCT-116 cells assessed as necrotic cells at 2.5 nM incubated for 48 hrs by PI/Annexin V-FITC staining based flow cytometry assay (reference value: 2.58%); assay type: functional
HCT-116 [13] = experiment: Induction of apoptosis in human HCT-116 cells assessed as viable cells at 10 nM incubated for 48 hrs by PI/Annexin V-FITC staining based flow cytometry assay (reference value: 93%); assay type: functional; details: read-out: Activity
HCT-116 [14] = experiment: Induction of apoptosis in human HCT-116 cells assessed as early apoptotic cells at 10 nM incubated for 48 hrs by PI/Annexin V-FITC staining based flow cytometry assay (reference value: 0.27%); assay type: functional
HCT-116 [15] = experiment: Induction of apoptosis in human HCT-116 cells assessed as late apoptotic cells at 10 nM incubated for 48 hrs by PI/Annexin V-FITC staining based flow cytometry assay (reference value: 4.02%); assay type: functional
HCT-116 [16] = experiment: Induction of apoptosis in human HCT-116 cells assessed as necrotic cells at 10 nM incubated for 48 hrs by PI/Annexin V-FITC staining based flow cytometry assay (reference value: 2.58%); assay type: functional
HCT-116 [17] = experiment: Induction of apoptosis in human HCT-116 cells assessed as viable cells at 50 nM incubated for 48 hrs by PI/Annexin V-FITC staining based flow cytometry assay (reference value: 93%); assay type: functional; details: read-out: Activity
HCT-116 [18] = experiment: Induction of apoptosis in human HCT-116 cells assessed as early apoptotic cells at 50 nM incubated for 48 hrs by PI/Annexin V-FITC staining based flow cytometry assay (reference value: 0.27%); assay type: functional
HCT-116 [19] = experiment: Induction of apoptosis in human HCT-116 cells assessed as late apoptotic cells at 50 nM incubated for 48 hrs by PI/Annexin V-FITC staining based flow cytometry assay (reference value: 4.02%); assay type: functional
HCT-116 [20] = experiment: Induction of apoptosis in human HCT-116 cells assessed as necrotic cells at 50 nM incubated for 48 hrs by PI/Annexin V-FITC staining based flow cytometry assay (reference value: 2.58%); assay type: functional
HCT-116 [21] = experiment: Downregulation of XIAP protein level in human HCT-116 cells at 50 to 100 nM incubated for 72 hrs by Western blotting assay; assay type: functional, cell-based; details: dose 50-100 nM
HCT-116 [22] = experiment: Downregulation of Bcl-2 protein level in human HCT-116 cells at 50 to 100 nM incubated for 72 hrs by Western blotting assay; assay type: functional, cell-based; details: dose 50-100 nM
HCT-116 [23] = experiment: Downregulation of survivin protein level in human HCT-116 cells at 50 to 100 nM incubated for 72 hrs by Western blotting assay; assay type: functional, cell-based; details: dose 50-100 nM
HCT-116 [24] = experiment: Upregulation of Bax protein level in human HCT-116 cells incubated for 72 hrs by Western blotting assay; assay type: functional, cell-based; details: dose 50-100 nM
HCT-116 [25] = experiment: Upregulation of gammaH2AX protein level in human HCT-116 cells incubated for 72 hrs by Western blotting assay; assay type: functional, cell-based; details: dose 50-100 nM
[26] = biological target: T1, DNA topoisomerase 1 (Homo sapiens) (UniProt P11387); experiment: Inhibition of topoisomerase 1 (unknown origin) using pBR322 DNA as substrate by ethidium bromide staining based agarose gel electrophoresis method
T1 sequence (whole entry): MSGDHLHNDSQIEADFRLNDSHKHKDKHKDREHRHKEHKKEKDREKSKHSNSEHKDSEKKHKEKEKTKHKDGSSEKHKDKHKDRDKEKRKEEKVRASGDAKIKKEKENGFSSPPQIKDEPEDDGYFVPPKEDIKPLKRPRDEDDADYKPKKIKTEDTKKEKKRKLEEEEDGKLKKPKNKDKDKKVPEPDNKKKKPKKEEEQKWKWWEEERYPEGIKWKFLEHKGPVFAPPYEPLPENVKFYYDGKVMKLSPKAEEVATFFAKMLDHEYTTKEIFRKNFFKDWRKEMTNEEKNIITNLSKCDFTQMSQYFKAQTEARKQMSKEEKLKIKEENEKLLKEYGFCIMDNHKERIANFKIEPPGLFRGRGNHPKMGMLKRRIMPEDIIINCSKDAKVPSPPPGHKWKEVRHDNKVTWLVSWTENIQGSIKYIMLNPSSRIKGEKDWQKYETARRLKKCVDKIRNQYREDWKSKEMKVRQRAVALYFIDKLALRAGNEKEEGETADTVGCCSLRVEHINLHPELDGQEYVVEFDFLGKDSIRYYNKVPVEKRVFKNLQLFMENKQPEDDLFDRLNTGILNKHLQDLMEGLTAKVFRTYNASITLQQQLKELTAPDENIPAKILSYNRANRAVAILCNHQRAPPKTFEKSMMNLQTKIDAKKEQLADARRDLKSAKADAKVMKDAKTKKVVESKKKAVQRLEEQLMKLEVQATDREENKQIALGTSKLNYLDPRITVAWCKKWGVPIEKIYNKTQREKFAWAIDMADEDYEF

HCT-116 [27] = experiment: Downregulation of DDX5 protein expression in human HCT-116 cells at 100 nM incubated upto 72 hrs by Western blotting assay; assay type: functional, cell-based
[28] = biological target: T1, DNA topoisomerase 1 (Homo sapiens); experiment: Inhibition of topoisomerase 1 (unknown origin) using pBR322 DNA as substrate in presence of DDX5 by ethidium bromide staining based agarose gel electrophoresis method
[29] = biological target: T1, DNA topoisomerase 1 (Homo sapiens); experiment: Inhibition of topoisomerase 1 (unknown origin) assessed as reduction in nicking of supercoiled DNA at 5 to 50 uM using pBR322 DNA as substrate by ethidium bromide staining based agarose gel electrophoresis method; details: dose 5-50 µM
[30] = biological target: T1, DNA topoisomerase 1 (Homo sapiens); experiment: Inhibition of topoisomerase 1 (unknown origin) assessed as reduction in nicking of supercoiled DNA at 0.05 to 0.5 uM using pBR322 DNA as substrate by ethidium bromide staining based agarose gel electrophoresis method; details: dose 0.05-0.5 µM

SMILES: CC[C@@]1(O)C(=O)OCc2c1cc1n(c2=O)Cc2c-1nc1cc3c(cc1c2-c1cc(F)cc(F)c1)OCO3
- IC50 (HepG2): 41.4 nM
- IC50 (A549): 49.5 nM
- IC50 (HeLa): 35.6 nM
- IC50 (HCT-116 [1]): 48 nM
- Activity (PDX27454 [2]): Active
- Activity [3]: Non-toxic

SMILES: CC[C@@]1(O)C(=O)OCc2c1cc1n(c2=O)Cc2c-1nc1cc3c(cc1c2-c1ccc(F)c(OC)c1)OCO3
- Activity (PDX27454 [2]): Active
- Activity (PDX27454 [4]): Active
- Activity (PDX27454 [5]): Dose-dependent-effect
- Activity [3]: Non-toxic
- inhibition (HCT-116 [6]): Dose-dependent-effect
- Activity (HCT-116 [7]): Dose-dependent-effect
- Activity (HCT-116 [8]): inactive
- viability at 0.0025 µM (HCT-116 [9]): 84.4%
- Activity (HCT-116 [10]): 0.64%
- Activity (HCT-116 [11]): 10.9%
- Activity (HCT-116 [12]): 4.13%
- viability at 0.01 µM (HCT-116 [13]): 79%
- Activity (HCT-116 [14]): 0.5%
- Activity (HCT-116 [15]): 16.3%
- Activity (HCT-116 [16]): 4.17%
- viability at 0.05 µM (HCT-116 [17]): 67.5%
- Activity (HCT-116 [18]): 0.78%
- Activity (HCT-116 [19]): 25.9%
- Activity (HCT-116 [20]): 5.94%
- Activity (HCT-116 [21]): Active
- Activity (HCT-116 [22]): Active
- Activity (HCT-116 [23]): Active
- Activity (HCT-116 [24]): Active
- Activity (HCT-116 [25]): Active
- inhibition [26]: Active
- Activity (HCT-116 [27]): inactive
- Activity [28]: Active
- Activity [29]: Active
- Activity [30]: inactive

SMILES: CC[C@@]1(O)C(=O)OCc2c1cc1n(c2=O)Cc2c-1nc1cc3c(cc1c2-c1ccc(F)c(F)c1)OCO3
- IC50 (HepG2): 49.9 nM
- IC50 (A549): 9 nM
- IC50 (HeLa): 39.7 nM
- IC50 (HCT-116 [1]): 48.8 nM

SMILES: CCc1c2c(nc3ccc(O)cc13)-c1cc3c(c(=O)n1C2)COC(=O)[C@]3(O)CC [7-ETHYL-10-HYDROXYCAMPTOTHECIN]
- IC50 (HepG2): 268 nM
- IC50 (A549): 475 nM
- IC50 (HeLa): 234 nM
- IC50 (HCT-116 [1]): 367 nM
- Activity (HCT-116 [27]): inactive

SMILES: CC[C@@]1(O)C(=O)OCc2c1cc1n(c2=O)Cc2c-1nc1cc3c(cc1c2-c1ccc(OC(F)(F)F)cc1)OCO3
- IC50 (HepG2): 229 nM
- IC50 (A549): 87.3 nM
- IC50 (HeLa): 398 nM
- IC50 (HCT-116 [1]): 196 nM

SMILES: CC[C@@]1(O)C(=O)OCc2c1cc1n(c2=O)Cc2c-1nc1cc3c(cc1c2-c1cc(C)cc(F)c1)OCO3
- IC50 (HepG2): 56 nM
- IC50 (A549): 30.6 nM
- IC50 (HeLa): 56.5 nM
- IC50 (HCT-116 [1]): 41.4 nM

SMILES: CC[C@@]1(O)C(=O)OCc2c1cc1n(c2=O)Cc2c-1nc1cc3c(cc1c2-c1ccc(C)c(F)c1)OCO3
- IC50 (HepG2): 36.9 nM
- IC50 (A549): 48.2 nM
- IC50 (HeLa): 22.1 nM
- IC50 (HCT-116 [1]): 50.3 nM

SMILES: CC[C@@]1(O)C(=O)OCc2c1cc1n(c2=O)Cc2c-1nc1cc3c(cc1c2-c1ccc(F)c(C)c1)OCO3
- IC50 (HepG2): 36.7 nM
- IC50 (A549): 29.4 nM
- IC50 (HeLa): 36.6 nM
- IC50 (HCT-116 [1]): 25.5 nM
